# Results: patent publication US9802888B2, “STAT3 inhibitors” (UNIVERSITY OF HAWAII, priority 2013, dated 2017)
# Entries after “also recorded” stand apart in the source; their conditions may differ.
# How the values were obtained:
# [1] = test system: Bcl-2, Bcl-xL, Cyclin D1, c-Myc, and Survivin; assay: Immunoblotting of Stat3-regulated gene expression; settings: MDA-MB-231 and U251 cells; 24 h-treatment (5 uM)
# [2] = test system: pY1068EGFR, pY416Src, pJak2, pShc, pErk1/2, pS473Akt; format: cell-based, human; settings: concentrations that inhibit intracellular Stat3 activation (3-10 μM)
# Source text: (§1) FIG. 2. […] Positions of STATs:DNA complexes or proteins in gel are labeled; control lanes (0) represent nuclear extracts treated with 0.05% DMSO, or nuclear extracts or whole-cell lysates prepared from 0.05% DMSO-treated cells. Values shown in each panel are means plus standard deviations of at least four independent transfections, each performed in triplicate. For each transfection, luciferase activity was normalized to transfection efficiency, with β-Gal activity as an internal control. *-<0.05. Data are representative of 3-4 independent determinations. FIG. 2 (H). […] FIG. 2 (I).
# (§2) Turkson et al., Novel peptidomimetic inhibitors of signal transducer and activator of transcription 3 dimerization and biological activity. […] Mol. Cell. […] Mol. Cell. […] Mol. Cell.
# [3] = molecular target: T1, Stat1:Stat1 (Mus musculus, UniProt P42225); assay: Stat1 DNA-binding activity, EMSA with MGFe probe, nuclear extracts of EGF-stimulated NIH3T3/hEGFR; format: biochemical; settings: for effect on Stat1:Stat1 DNA-binding activity: EMSA, MGFe probe; for disruption of Stat1 DNA-binding activity: concentrations up to 20 μM
# T1 construct: endogenous in cells; host or cells: EGF-stimulated NIH3T3/hEGFR (nuclear extract)
# T1 sequence (P42225 2-749 limits assumed): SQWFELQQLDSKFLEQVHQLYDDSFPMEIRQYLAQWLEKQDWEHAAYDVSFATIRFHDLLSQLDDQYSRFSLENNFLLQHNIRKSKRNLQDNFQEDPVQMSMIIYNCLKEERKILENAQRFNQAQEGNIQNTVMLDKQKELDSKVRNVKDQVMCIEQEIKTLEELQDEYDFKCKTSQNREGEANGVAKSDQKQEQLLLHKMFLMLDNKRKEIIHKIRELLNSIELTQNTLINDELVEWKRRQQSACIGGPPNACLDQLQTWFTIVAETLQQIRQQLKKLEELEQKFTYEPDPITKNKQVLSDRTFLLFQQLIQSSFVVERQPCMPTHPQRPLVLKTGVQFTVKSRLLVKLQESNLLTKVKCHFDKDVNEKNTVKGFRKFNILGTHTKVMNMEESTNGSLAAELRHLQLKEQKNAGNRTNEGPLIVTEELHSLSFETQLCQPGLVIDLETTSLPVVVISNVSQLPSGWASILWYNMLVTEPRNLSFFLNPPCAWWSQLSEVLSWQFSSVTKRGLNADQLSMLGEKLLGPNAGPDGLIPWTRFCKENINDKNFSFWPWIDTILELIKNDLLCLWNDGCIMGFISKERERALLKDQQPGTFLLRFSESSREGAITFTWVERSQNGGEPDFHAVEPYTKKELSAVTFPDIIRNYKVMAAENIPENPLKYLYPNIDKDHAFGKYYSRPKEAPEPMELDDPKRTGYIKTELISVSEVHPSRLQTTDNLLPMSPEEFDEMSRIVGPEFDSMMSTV
# Procedure: Nuclear extract preparations and electrophoretic mobility shift assay (EMSA) were carried out as previously described. Yu et al., 1995; Turkson et al., Stat3 activation by Src induces specific gene regulation and is required for cell transformation. Mol. Cell. Biol. 18:2545-2552 (1998). The ^32P-labeled oligonucleotide probes used were hSIE (high affinity sis-inducible element from the c-fos gene, m67 variant, 5′-[…]) (SEQ ID NO: 1) that binds Stat1 and Stat3 and MGFe (mammary gland factor element from the bovine β-casein gene promoter, 5′-[…]) (SEQ ID NO: 2) for Stat1 and Stat5 binding. Wagner et al., The SIF binding element confers sis/PDGF inducibility onto the c-fos promoter. EMBO J. 9:4477-4484 (1990); Gouilleux et al., Prolactin and interleukin-2 receptors in T lymphocytes signal through a MGF-STATS-like transcription factor. Endocrinology 136:5700-5708 (1995). Except where indicated, nuclear extracts were pre-incubated with compound for 30 min at room temperature prior to incubation with the radiolabeled probe for 30 min at 30° C. before subjecting to EMSA analysis. Bands corresponding to DNA-binding activities were scanned and quantified for each concentration of compound using ImageQuant and plotted as percent of control (vehicle) against concentration of compound, from which the IC50 values were derived, as previously reported. […] J Biol Chem. 280:32979-32988 (2005).
# […]. Zhang et al. (2012). […]. Siddiquee et al., Selective chemical probe inhibitor of Stat3, identified through structure-based virtual screening, induces antitumor activity, Proc Natl Acad Sci USA. 104:7391-7396 (2007).
# [4] = test system: Stat3-dependent luciferase reporter, pLucTKS3; assay: Stat3-dependent luciferase reporter in NIH3T3 co-transfected with v-Src; format: cell-based, mouse; settings: 3 or 5 μM
# Source text: as §1, §2
# [5] = molecular target: EGF receptor and Stat3 (Mus musculus, UniProt P42227); assay: Co-immunoprecipitation of EGF receptor and Stat3 in EGF-stimulated NIH3T3/EGFR; settings: pre-treatment 10 μM for 5 min to 24 h
# Source text: (§3) Primary antibodies used were anti-Stat3, pY705Stat3, pY416Src, Src, pErk1/2, Erk1/2, EGFR, pEGFR, pJAK2, c-Myc, Bcl-xL, Bcl-2, Survivin, and β-Actin (Cell Signaling, Danvers), and VEGF (Santa Cruz Biotech, Santa Cruz).
# [6] = molecular target: pY705Stat3 (Mus musculus, UniProt P42227); assay: EGF-induced Stat3 phosphorylation in NIH3T3/hEGFR, immunoblotting; settings: cells pre-treated for 24 h, 10 μM
# Source text: as §3
# [7] = test system: glioma, breast cancer or pancreatic cancer; assay: Treatment of subjects with cancer; format: in vivo; settings: intravenous or oral, 0.08 mg/kg to 0.4 mg/kg
# [8] = test system: Stat3-independent luciferase reporter, pLucSRE; assay: Stat3-independent luciferase reporter in NIH3T3 co-transfected with v-Src; format: cell-based, mouse; settings: similar treatment (3 or 5 μM)
# Source text: as §1, §2
# [9] = test system: U251 cells; assay: Intracellular levels by LC-MS of cell extracts; format: in vitro ADME, human; settings: U251 cells treated once with 5 μM
# Source text: The intracellular and tissue levels of SH5-07 were studied, following a single treatment.
# [10] = In vivo pharmacokinetic analysis, serum and brain tissue levels; design: species or system mouse; settings: mice, single dose tail vein injection 3 mg/kg
# Chain of pY705Stat3 (P42227 whole entry): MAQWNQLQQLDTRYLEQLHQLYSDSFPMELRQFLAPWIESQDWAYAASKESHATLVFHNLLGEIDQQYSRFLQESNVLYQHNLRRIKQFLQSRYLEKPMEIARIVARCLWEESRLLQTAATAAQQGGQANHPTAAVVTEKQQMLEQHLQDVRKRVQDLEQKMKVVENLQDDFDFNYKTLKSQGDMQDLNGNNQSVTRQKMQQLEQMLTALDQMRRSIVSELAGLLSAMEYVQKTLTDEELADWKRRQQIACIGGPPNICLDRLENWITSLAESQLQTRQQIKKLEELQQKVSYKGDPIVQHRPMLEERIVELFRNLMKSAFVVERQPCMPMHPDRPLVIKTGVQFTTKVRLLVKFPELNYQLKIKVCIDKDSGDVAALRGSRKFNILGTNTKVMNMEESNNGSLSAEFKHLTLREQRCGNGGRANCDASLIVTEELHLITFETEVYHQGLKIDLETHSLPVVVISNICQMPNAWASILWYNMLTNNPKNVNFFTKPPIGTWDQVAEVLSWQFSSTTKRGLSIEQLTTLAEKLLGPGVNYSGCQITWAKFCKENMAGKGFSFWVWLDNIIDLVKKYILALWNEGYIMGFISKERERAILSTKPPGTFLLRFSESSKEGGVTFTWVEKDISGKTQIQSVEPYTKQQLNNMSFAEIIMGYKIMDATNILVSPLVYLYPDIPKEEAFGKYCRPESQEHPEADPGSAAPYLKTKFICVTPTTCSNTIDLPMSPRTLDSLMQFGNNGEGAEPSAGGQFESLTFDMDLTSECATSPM
# Chain of EGF receptor and Stat3 (P42227 2-770 limits assumed): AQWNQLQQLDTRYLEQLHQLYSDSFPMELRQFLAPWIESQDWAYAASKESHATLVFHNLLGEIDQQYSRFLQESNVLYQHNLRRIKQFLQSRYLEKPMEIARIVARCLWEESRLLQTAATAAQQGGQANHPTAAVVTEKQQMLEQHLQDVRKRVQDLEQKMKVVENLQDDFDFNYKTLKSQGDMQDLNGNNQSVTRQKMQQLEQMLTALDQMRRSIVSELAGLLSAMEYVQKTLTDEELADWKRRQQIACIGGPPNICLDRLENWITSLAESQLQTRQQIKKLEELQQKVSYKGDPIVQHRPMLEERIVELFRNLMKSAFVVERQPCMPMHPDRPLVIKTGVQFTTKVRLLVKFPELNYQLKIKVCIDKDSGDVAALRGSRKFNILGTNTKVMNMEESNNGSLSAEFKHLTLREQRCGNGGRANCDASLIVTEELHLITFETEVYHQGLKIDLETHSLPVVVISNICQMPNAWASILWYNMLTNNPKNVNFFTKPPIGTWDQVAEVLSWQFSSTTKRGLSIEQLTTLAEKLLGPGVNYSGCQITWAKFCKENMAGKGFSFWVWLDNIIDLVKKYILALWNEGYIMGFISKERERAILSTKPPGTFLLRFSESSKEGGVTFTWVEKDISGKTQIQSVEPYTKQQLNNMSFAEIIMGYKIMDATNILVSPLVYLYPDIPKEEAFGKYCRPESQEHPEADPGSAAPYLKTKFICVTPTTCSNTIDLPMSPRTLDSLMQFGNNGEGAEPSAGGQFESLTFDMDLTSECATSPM
disruption of Stat1 DNA-binding activity [3],induction by v-Src of pLucTKS3 luciferase reporter [4],co-IP between EGF receptor and Stat3 promoted by EGF [5],EGF-induced Stat3 phosphorylation (pY705Stat3) [6],induction of pLucSRE luciferase reporter [8],intracellular levels at 1 h [9],intracellular levels at 6 h [9],intracellular levels at 24 h [9],average level in brain tissue at 10 min [10],average level in brain tissue at 60 min [10],"concentration at 10 min ([10]; mouse, serum, intravenous, read-out: average level in serum at 10 min post-dosing)","concentration at 60 min ([10]; mouse, serum, intravenous, read-out: average level in serum at 60 min)",Structure (SMILES),expression of Stat3-regulated genes [1],"effect on phosphorylation of EGFR, Src, Jak2, Shc, ERK1/2, Akt [2]",effect on Stat1:Stat1 DNA-binding activity [3],tumor response in subjects [7]
little or no disruption,–,–,–,–,–,–,–,–,–,–,–,CN(CC(=O)N(Cc1ccc(C2CCCCC2)cc1)c1ccc(C(=O)O)cc1)S(=O)(=O)c1c(F)c(F)c(F)c(F)c1F [SH4-54],down-regulated,little or no effect,little or no effect; also recorded: minimal effects,–
little or no disruption,significantly (p<0.01) inhibited,suppressed,inhibited,no attenuating effect,"1,238±181 μM",27.6 µM,background levels,7.76 fmole/mg tissue,8.19 fmole/mg tissue,13.5 µM,4.67 µM,CN(CC(=O)N(Cc1ccc(C2CCCCC2)cc1)c1ccc(C(=O)NO)cc1)S(=O)(=O)c1c(F)c(F)c(F)c(F)c1F [SH5-07],down-regulated; also recorded: significantly suppressed,–,little or no effect; also recorded: minimal effects,"shrinkage of the tumors, or slowing of the progession of tumor growth is observed"
